Holding throughout (assay): inhibition of tumour cell growth, NCI panel, 48 h
In assay [1] the test system is T-47D breast.
Assay [2] has as its system CAKI-1 renal.
In assay [3] the test system is NCI-H460 lung.
The test system of assay [4] is SK-MEL-2 melanoma.
The subject of assay [5] is UACC-257 melanoma.
The subject of assay [6] is SF-268 CNS.
Assay [7] concerns OVCAR-8 ovarian.
Assay [8] has as its system NCI-H226 lung.
The subject of assay [9] is MDA-MB-435.
The test system of assay [10] is SR leukemia.

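Cells were grown in 96-well plates and exposed to each compound for 48 hours at five concentrations; endpoints were interpolated linearly between bracketing concentrations, or set to the highest concentration if not reached. GI50 marks 50% less growth. The concentration for full growth arrest is given as TGI.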

Consider `COc1cc2c3c(n(CCCNCCNCCCN)c(=O)c2cc1OC)-c1cc2c(cc1C3=O)OCO2`, for which the GI50 was 2.72 µM in assay [1]; 5.68 µM in assay [2]; 6.41 µM in assay [3]; 2.59 µM in assay [4]; 9.51 µM in assay [5]; 1.99 µM in assay [6]. The GI50 in assay [7] is 2.39 µM; in assay [8], 2.06 µM; in [9], 3.45 µM. Further, the TGI was 17.3 µM in [1]; 24.1 µM in assay [2]; more than 100 µM in assay [3]; 10 µM in assay [4]; 30.9 µM in assay [5]; 11.4 µM in assay [6]. In addition, the results for the TGI in assay [7], in assay [8] and in assay [9] were 6.45 µM, 7.06 µM and 15.6 µM, respectively.
With `COc1ccc(-c2ccccc2)cc1-c1c(Nc2cc(Cl)cc(Cl)c2O)c(=O)c1=O`, the GI50 in [1] was 1.7 µM; in assay [2] it was 1.33 µM; in assay [3], 1.55 µM; in [10] it was 1.61 µM; in assay [4], 1.77 µM; in assay [5] it was 1.44 µM. For the same molecule, the GI50 in assay [6] was 1.31 µM; in assay [7] it was 1.84 µM; in [8], 1.57 µM. Also, the TGI in assay [1] was more than 50 µM; in assay [2] it was 4.83 µM; in assay [3], more than 50 µM; in [10], 21.8 µM; in [4], more than 50 µM; in assay [5], 4.77 µM. The TGI in [6], in assay [7] and in assay [8] was more than 50 µM throughout.
For `CO/N=C(/COc1c(-c2ccccc2)oc2ccccc2c1=O)c1ccc(F)cc1`, the GI50 in assay [1] was more than 100 µM; in [2] it was more than 100 µM; in [10], 22 µM; in assay [4], 58.4 µM; in assay [5] it was more than 100 µM; in [7], 53 µM. Moreover, the GI50 in [8] and in assay [9] was more than 100 µM each time. The TGI in [1], in assay [2], in assay [10], in assay [4], in [5] and in assay [7] was more than 100 µM each time. The TGI in [8] and in assay [9] was more than 100 µM throughout.
For the molecule `CN(C)CCNC(=O)c1nc([N+](=O)[O-])cn1C`, the TGI in assay [1], in assay [2], in assay [3], in assay [10], in assay [4] and in [5] was more than 100 µM each time. Also, the TGI in assay [6], in assay [7] and in [9] was more than 100 µM each time.
As for `OCc1ccc(Oc2c3ccccc3nc3occc23)cc1`, the GI50 in [1] is 6.94 µM; in [2], 18.1 µM; in assay [3], 20.8 µM; in assay [10], 38.5 µM; in [5] it was 30 µM; in assay [6] it was 20.6 µM. In addition, the GI50 in [7] is 28.3 µM; in assay [9] it was 15.5 µM. Besides, the TGI in assay [1] was 62.4 µM; in assay [2], 35.8 µM; in assay [3], 68 µM; in assay [10], more than 100 µM; in assay [5] it was 74.7 µM; in assay [6] it was 66.7 µM. Further, the TGI in assay [7] is more than 100 µM; in assay [9] it was 38.2 µM.
For the molecule `COc1ccc(-c2csc3c2-n2cccc2C3=O)cc1O`, the GI50 was 39.4 µM in assay [1]; 0.0497 µM in assay [2]; 0.0375 µM in assay [3]; less than 0.01 µM in [10]; 1.36 µM in assay [5]; less than 0.0284 µM in assay [6]. In addition, the GI50 was 0.0281 µM in assay [7], 12.1 µM in [8] and less than 0.01 µM in [9]. Moreover, the TGI was more than 100 µM in [1]; more than 63.2 µM in assay [2]; 13.1 µM in assay [3]; 31.9 µM in [10]; more than 100 µM in assay [5]; more than 82.2 µM in assay [6]. The TGI in assay [7] is more than 100 µM; in assay [8] it was more than 46.6 µM; in [9], 0.0102 µM.
Consider `C=C1C(=O)O[C@H]2C[C@@H]1CCC1(C)OC1CC/C(C)=C/CC[C@H]2C` (some centres not stated), for which the GI50 in [1] was 16.9 µM; in [3], 17.1 µM; in [10], 18.1 µM; in [4], 48.5 µM; in [5] it was 19.2 µM; in assay [6], 18.7 µM. Also, the GI50 was 26.8 µM in [7], 18.7 µM in [8] and 18.9 µM in assay [9]. Also, the TGI in assay [1] was 37.6 µM; in assay [3], 33.1 µM; in [10], 33 µM; in assay [4], more than 100 µM; in assay [5], 37.2 µM; in assay [6], 37 µM. Moreover, the TGI was 72.2 µM in assay [7], 39.4 µM in assay [8] and 34.6 µM in [9].
In the case of `Cc1ccc2[nH]c(C(=O)NN3C(=O)C(C)SC34CCCCC4C)c(-c3ccccc3)c2c1` (configuration not stated), the GI50 in assay [1] was 24.6 µM; in assay [2], 17 µM; in assay [3], 22 µM; in assay [4], 12 µM; in [5], 20.4 µM; in [6], 18.8 µM. Also, the GI50 in [7] is 20.9 µM; in [8] it was 17.4 µM; in [9], 16.4 µM. For the same molecule, the TGI in assay [1] is 78.9 µM; in assay [2] it was 40.7 µM; in assay [3], 58.5 µM; in assay [4], 26.5 µM; in assay [5] it was 37.6 µM; in [6] it was 43.6 µM. Also, the results for the TGI in assay [7], in [8] and in assay [9] were 43.2 µM, 34.2 µM and 33.1 µM, respectively.
For the molecule `Cc1cn2c(=O)n(c1=O)Cc1ccccc1C2`, the GI50 in assay [1] was 0.182 µM; in assay [2] it was more than 100 µM; in assay [3], more than 100 µM; in [4], more than 100 µM; in assay [5], more than 100 µM; in [6], 38.6 µM. In addition, the GI50 is 46.6 µM in assay [7] and more than 100 µM in assay [9]. Also, the TGI in assay [1] is 10.8 µM; in [2], more than 100 µM; in assay [3], more than 100 µM; in assay [4] it was more than 100 µM; in [5], more than 100 µM; in assay [6] it was more than 100 µM. Further, the TGI in assay [7] and in [9] was more than 100 µM throughout.
